Values of other authors as cited in patent US20230218596A1 (MEREO BIOPHARMA 4 LIMITED, priority 2020, published 2023).
Where two headings read alike, the source gives them in different places.

Tests used:
human NE = molecular target: T1, human NE (Homo sapiens, UniProt P08246); settings: cited from earlier work
T1 sequence (P08246 30-267): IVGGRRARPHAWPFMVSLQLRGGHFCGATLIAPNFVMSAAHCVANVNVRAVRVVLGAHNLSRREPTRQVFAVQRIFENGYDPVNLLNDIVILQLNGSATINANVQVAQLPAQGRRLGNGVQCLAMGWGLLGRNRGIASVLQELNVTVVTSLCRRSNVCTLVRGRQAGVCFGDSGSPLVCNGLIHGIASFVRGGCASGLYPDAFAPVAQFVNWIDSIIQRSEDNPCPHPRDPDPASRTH

bronchiectasis = bronchiectasis patients, 4-week duration; cited from earlier work
NE [1] = molecular target: T2, NE (Homo sapiens, UniProt P08246); settings: cell-associated assay; cited from earlier work
NE [2] = molecular target: T2, NE; settings: whole-blood assay; cited from earlier work
ARDS = settings: experimental models of ARDS; cited from earlier work
[3] = test system: NE from other species, including mice; settings: cited from earlier work
cystic fibrosis = cystic fibrosis patients, 4-week duration; cited from earlier work

Cc1c(-c2ccnn2C)cc(C(=O)NCc2ccc(S(C)(=O)=O)cn2)c(=O)n1-c1cccc(C(F)(F)F)c1 [Alvelestat, N-{[5-(methanesulfonyl)pyridin-2-yl]methyl}-6-methyl-5-(1-methyl-1H-pyrazol-5-yl)-2-oxo-1-[3-(trifluoromethyl)phenyl]-1,2-dihydropyridine-3-carboxamide]
reversibility of inhibition (human NE): rapidly reversible | lung function and inflammation (bronchiectasis): clinically significant improvement | IC50 (NE [1]): 48 nM | IC50 (NE [2]): 44 nM | lung inflammation and injury (ARDS): protected the lung from inflammation and injury | crossover potency for NE from other species [3]: good crossover potency | biomarkers of elastase activity and inflammation (cystic fibrosis): significant decrease
